Data published in patent publication US8754115B2, “Fungicidal pyrazoles” (E I du Pont de Nemours and Company, priority 2010, dated 2014).
Marks after values point to notes of the source that are not given here.

Tests used:
Format in all cases: in vivo
Botrytis cinerea = assay: Test A: preventive spray on tomato seedlings, visual disease rating (tomato Botrytis)
Summary of the method: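 Tomato seedlings sprayed to run-off with 200 ppm suspension (800 g/ha; asterisk marks 40 ppm), inoculated next day with Botrytis cinerea spores, held 48 h saturated at 20 °C then 3 days at 24 °C. Visual rating: 100 = full disease control, 0 = none, relative to controls.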

Alternaria solani = assay: Test B: preventive spray on tomato seedlings, visual disease rating (tomato early blight)
Text: (§1) General protocol for preparing test suspensions for Tests A-F: the test compounds were first dissolved in acetone in an amount equal to 3% of the final volume and then suspended at the desired concentration (in ppm) in acetone and purified water (50/50 mix by volume) containing 250 ppm of the surfactant Trem® 014 (polyhydric alcohol esters). The resulting test suspensions were then used in Tests A-F. Spraying a 200 ppm test suspension to the point of run-off on the test plants was the equivalent of a rate of 800 g/ha. Unless otherwise indicated, the rating values indicate a 200 ppm test suspension was used. (An asterisk “*” next to the rating value indicates a 40 ppm test suspension was used.)
The test suspension was sprayed to the point of run-off on tomato seedlings. The following day the seedlings were inoculated with a spore suspension of Alternaria solani (the causal agent of tomato early blight) and incubated in a saturated atmosphere at 27° C. for 48 h, and then moved to a growth chamber at 20° C. for 5 days, after which time visual disease ratings were made.
(§2) Results for Tests A-F are given in Table A. In the Table, a rating of 100 indicates 100% disease control and a rating of 0 indicates no disease control (relative to the controls). A dash (-) indicates no test results. An asterisk “*” next to the rating value indicates a 40 ppm test suspension was used.

Septoria nodorum = assay: Test C: preventive spray on wheat seedlings, visual disease rating (Septoria glume blotch)
Text: as §1
The test suspension was sprayed to the point of run-off on wheat seedlings. The following day the seedlings were inoculated with a spore suspension of Septoria nodorum (the causal agent of Septoria glume blotch) and incubated in a saturated atmosphere at 24° C. for 48 h, and then moved to a growth chamber at 20° C. for 6 days, after which time visual disease ratings were made.
as §2

Septoria tritici = assay: Test D: preventive spray on wheat seedlings, visual disease rating (wheat leaf blotch)
Summary of the method: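 Wheat seedlings were sprayed to run-off with a 200 ppm suspension (equal to 800 g/ha), or 40 ppm where marked with an asterisk, and inoculated with Septoria tritici spores the next day. Plants were kept at 24 °C in saturated air for 48 h, then at 20 °C for 19 days. Disease control was rated visually from 0 to 100 relative to controls.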

[1] = test system: Puccinia recondite f. sp. tritici; assay: Test E1: curative spray on wheat seedlings after inoculation, visual disease rating (wheat leaf rust)
Text: as §1
Wheat seedlings were inoculated with a spore suspension of Puccinia recondite f. sp. tritici (the causal agent of wheat leaf rust) and incubated in a saturated atmosphere at 20° C. for 24 h, and then moved to a growth chamber at 20° C. for 2 days. After 2 days, the test suspension was sprayed to the point of run-off on the wheat seedlings, and then the seedlings were moved back to the growth chamber at 20° C. for 6 days. Upon removal, visual disease ratings were made.
as §2

[2] = test system: Puccinia recondite f. sp. tritici; assay: Test E2: preventive spray on wheat seedlings, visual disease rating (wheat leaf rust)
Summary of the method: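 Test suspension (acetone 3% of volume, acetone/water 50/50, 250 ppm Trem 014), 200 ppm unless starred (40 ppm), sprayed to run-off on wheat seedlings; inoculated next day with P. recondita spores. 24 h saturated atmosphere at 20 °C, then 7 days at 20 °C; visual rating, 100 = full control vs untreated.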

[3] = test system: Blumeria graminis f. sp. tritici; assay: Test F: preventive spray on wheat seedlings, visual disease rating (wheat powdery mildew)
Summary of the method: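 Compound in acetone/water (50/50) with 250 ppm surfactant, sprayed to run-off on wheat seedlings at 200 ppm (≈800 g/ha) or, where marked, 40 ppm. Seedlings dusted with spores the next day, kept 8 days at 20° C., then rated visually as % disease control versus untreated plants.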

[4] = asterisk: 40 ppm test suspension
[5] = no asterisk: standard test suspension, not 40 ppm, 100 = 100% disease control, 0 = none
[6] = no asterisk: standard test suspension, not 40 ppm

Molecule | Test A rating (% disease control) (Botrytis cinerea; [4]) | Test B rating (% disease control) (Alternaria solani; [4]) | Test C rating (% disease control) (Septoria nodorum; [4]) | Test D rating (% disease control) (Septoria tritici; [4]) | Test E1 rating (% disease control) [1, 4] | Test E2 rating (% disease control) [2, 4] | Test F rating (% disease control) [3, 4] | Test A rating (% disease control) (Botrytis cinerea; [5]) [%] | Test B rating (% disease control) (Alternaria solani; [6]) [%] | Test C rating (% disease control) (Septoria nodorum; [6]) [%] | Test D rating (% disease control) (Septoria tritici; [6]) [%] | Test E1 rating (% disease control) [1, 6] [%] | Test E2 rating (% disease control) [2, 6] [%] | Test F rating (% disease control) [3, 6] [%]
Cc1nn(C)c(-c2ccc(F)cc2F)c1Nc1ccc(F)cc1Cl [compound 57] | 99* % | 0* % | 0* % | 81* % | 0* % | 18* % | 97* % | – | – | – | – | – | – | –
Cc1nn(C)c(-c2c(F)cccc2Cl)c1C(=O)c1ccc(Cl)cc1Cl [compound 27] | – | – | – | – | – | – | – | 0 | 0 | 0 | 0 | 0 | 0 | 81
Cc1nn(C)c(-c2c(F)cccc2F)c1Nc1ccc(F)cc1F [compound 64] | – | – | – | – | – | – | – | 99 | 0 | 0 | 48 | 0 | 55 | 97
4-(2-chloro-4-fluorophenoxy)-5-(2,4-difluorophenyl)-1,3-dimethyl-1H-pyrazole [Compound 5] | – | – | – | – | – | – | – | 100 | 100 | 100 | 100 | 99 | 100 | 100
COC(c1ccc(F)cc1Cl)c1c(C)nn(C)c1-c1c(F)cccc1Cl (centres unmarked) [Compound 67] | – | – | – | – | – | – | – | 57 | 9 | 0 | 100 | 28 | 90 | 100
Cc1nn(C)c(-c2c(F)cccc2F)c1Nc1ccc(F)cc1Cl [compound 50] | – | – | – | – | – | – | – | 99 | 93 | 0 | 100 | 0 | 79 | 98
α-(2,4-difluorophenyl)-5-(2,4-difluorophenyl)-1,3-dimethyl-1H-pyrazole-4-methanol [Compound 72] | – | – | – | – | – | – | – | 100 | 0 | 0 | 99 | 0 | 40 | 99
Cc1nn(C)c(-c2c(F)cccc2F)c1C(=O)c1ccc(F)cc1F [compound 24] | – | – | – | – | – | – | – | 9 | 0 | 0 | 0 | 9 | 79 | 96
Cc1nn(C)c(-c2c(F)cccc2Cl)c1C(F)c1c(F)cc(F)cc1F (centres unmarked) [Compound 75] | – | 100* % | 87* % | 100* % | 74* % | 100* % | 99* % | – | – | – | – | – | – | –
Cc1nn(C)c(-c2c(Cl)cccc2Cl)c1C(O)c1c(F)cc(F)cc1F (centres unmarked) [compound 70] | – | – | – | – | – | – | – | – | 99 | 60 | 100 | 94 | 100 | 99
Cc1nn(C)c(-c2c(F)cccc2Cl)c1C(C)(O)c1ccc(F)cc1F (centres unmarked) [Compound 29] | – | – | – | – | – | – | – | 100 | 64 | 0 | – | 0 | 100 | 96
Cc1nn(C)c(-c2ccc(F)cc2Br)c1C(O)c1ccc(F)cc1F (centres unmarked) [compound 76] | – | – | – | – | – | – | – | – | 99 | 60 | 100 | 99 | 100 | 100
Cc1nn(C)c(-c2ccc(F)cc2F)c1C(O)c1ccc(F)cc1Cl (centres unmarked) [compound 71] | – | 78* % | 73* % | 100* % | 88* % | 99* % | 99* % | – | – | – | – | – | – | –
Cc1nn(C)c(-c2ccc(C#N)cc2F)c1Oc1ccc(F)cc1F [compound 26] | – | – | – | – | – | – | – | 100 | 0 | 0 | – | 0 | 79 | 64
Cc1nn(C)c(-c2c(F)cccc2Cl)c1C(O)c1ccc(Cl)cc1Cl (centres unmarked) [compound 90] | – | 100* % | 99* % | 100* % | 74* % | 100* % | – | – | – | – | – | – | – | 100
Cc1nn(C)c(-c2c(F)cccc2F)c1C(F)c1ccc(Cl)cc1Cl (centres unmarked) [Compound 92] | – | 99* % | 94* % | 100* % | 74* % | 99* % | 100* % | – | – | – | – | – | – | –
Cc1nn(C)c(-c2ccc(Cl)cc2Cl)c1C(=O)c1ccc(F)cc1F [compound 89] | – | – | – | – | – | – | – | – | 0 | 0 | 93 | 0 | 89 | 100
